Laboratory results from PubChem BioAssay AID2060484 (Molecular Pharmacology Branch, DTP, NCI, 2025).

System: SUM149PT spheroids with HUVEC/MSC, viability
Experiment: Anticancer human tumor SUM149PT cell line growth inhibition [GQUAD];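 further: spheroids exposed to drugs for seven days before readout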;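 on viability, T/C: percent viability relative to DMSO vehicle control taken as 100%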
Details: for IC50: curve of first compound; for viability, T/C: stronger effect = lower value
How it was run: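 Multi-cell-type spheroids of tumor cells with HUVEC and mesenchymal stem cells, treated with drug combinations. Concentrations descend in half-log steps from near clinical Cmax, or from 10 microM where Cmax is unknown; viability read-out.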

[1] = second compound 0.0316 µM, first compound 0.0316 µM
[2] = second compound 0.0316 µM, first compound 0.1 µM
[3] = second compound 0.0316 µM, first compound 0.316 µM
[4] = second compound 0.0316 µM, first compound 1 µM
[5] = second compound 0.0316 µM, first compound 3.16 µM
[6] = second compound 0.0316 µM, first compound 10 µM
[7] = second compound 0.1 µM, first compound 0.0316 µM
[8] = second compound 0.1 µM, first compound 0.1 µM
[9] = second compound 0.1 µM, first compound 0.316 µM
[10] = second compound 0.1 µM, first compound 1 µM
[11] = second compound 0.1 µM, first compound 3.16 µM
[12] = second compound 0.1 µM, first compound 10 µM
[13] = second compound 0.316 µM, first compound 0.0316 µM
[14] = second compound 0.316 µM, first compound 0.1 µM
[15] = second compound 0.316 µM, first compound 0.316 µM
[16] = second compound 0.316 µM, first compound 1 µM
[17] = second compound 0.316 µM, first compound 3.16 µM
[18] = second compound 0.316 µM, first compound 10 µM
[19] = second compound 1 µM, first compound 0.0316 µM
[20] = second compound 1 µM, first compound 0.1 µM
[21] = second compound 1 µM, first compound 0.316 µM
[22] = second compound 1 µM, first compound 1 µM
[23] = second compound 1 µM, first compound 3.16 µM
[24] = second compound 1 µM, first compound 10 µM
[25] = second compound 3.16 µM, first compound 0.0316 µM
[26] = second compound 3.16 µM, first compound 0.1 µM
[27] = second compound 3.16 µM, first compound 0.316 µM
[28] = second compound 3.16 µM, first compound 1 µM
[29] = second compound 3.16 µM, first compound 3.16 µM
[30] = second compound 3.16 µM, first compound 10 µM
[31] = second compound 10 µM, first compound 0.0316 µM
[32] = second compound 10 µM, first compound 0.1 µM
[33] = second compound 10 µM, first compound 0.316 µM
[34] = second compound 10 µM, first compound 1 µM
[35] = second compound 10 µM, first compound 3.16 µM
[36] = second compound 10 µM, first compound 10 µM

C=CCn1c(=O)c2cnc(Nc3ccc(N4CCN(C)CC4)cc3)nc2n1-c1cccc(C(C)(C)O)n1 + Cc1cnc(CNC(=O)c2c(=O)c3ccc(N4CCCN(C)CC4)nc3n3c2sc2ccccc23)cn1
IC50 (second compound 0.0316 µM): 68.6 nM | IC50 (second compound 0.1 µM): < 31.6 nM | IC50 (second compound 0.316 µM): < 31.6 nM | IC50 (second compound 1 µM): < 31.6 nM | IC50 (second compound 3.16 µM): < 31.6 nM | IC50 (second compound 10 µM): < 31.6 nM | viability, T/C [1]: 74.3% | viability, T/C [2]: 37% | viability, T/C [3]: 22.9% | viability, T/C [4]: 14.2% | viability, T/C [5]: 9.59% | viability, T/C [6]: 8.42% | viability, T/C [7]: 42.7% | viability, T/C [8]: 34.8% | viability, T/C [9]: 18.6% | viability, T/C [10]: 16.3% | viability, T/C [11]: 9.24% | viability, T/C [12]: 8.01% | viability, T/C [13]: 45.9% | viability, T/C [14]: 32.1% | viability, T/C [15]: 21.3% | viability, T/C [16]: 16.5% | viability, T/C [17]: 11.3% | viability, T/C [18]: 8.57% | viability, T/C [19]: 34.5% | viability, T/C [20]: 25.6% | viability, T/C [21]: 20.6% | viability, T/C [22]: 17.7% | viability, T/C [23]: 13.7% | viability, T/C [24]: 11.5% | viability, T/C [25]: 32.9% | viability, T/C [26]: 26.3% | viability, T/C [27]: 20.3% | viability, T/C [28]: 16.7% | viability, T/C [29]: 12.7% | viability, T/C [30]: 10.6% | viability, T/C [31]: 0.17% | viability, T/C [32]: 1.7% | viability, T/C [33]: 0.84% | viability, T/C [34]: 1.14% | viability, T/C [35]: 0.21% | viability, T/C [36]: 2.8%

CC(=O)O[C@H]1C(=O)[C@@]2(C)[C@H]([C@H](OC(=O)c3ccccc3)[C@]3(O)C[C@H](OC(=O)[C@H](O)[C@@H](NC(=O)c4ccccc4)c4ccccc4)C(C)=C1C3(C)C)[C@]1(OC(C)=O)CO[C@@H]1C[C@@H]2O + Cc1cnc(CNC(=O)c2c(=O)c3ccc(N4CCCN(C)CC4)nc3n3c2sc2ccccc23)cn1
IC50 (second compound 0.0316 µM): < 31.6 nM | IC50 (second compound 0.1 µM): < 31.6 nM | IC50 (second compound 0.316 µM): < 31.6 nM | IC50 (second compound 1 µM): < 31.6 nM | IC50 (second compound 3.16 µM): < 31.6 nM | IC50 (second compound 10 µM): < 31.6 nM | viability, T/C [1]: 25.8% | viability, T/C [2]: 16.3% | viability, T/C [3]: 15.5% | viability, T/C [4]: 9.27% | viability, T/C [5]: 11.8% | viability, T/C [6]: 16.7% | viability, T/C [7]: 26.2% | viability, T/C [8]: 26.1% | viability, T/C [9]: 13.4% | viability, T/C [10]: 13.1% | viability, T/C [11]: 14.7% | viability, T/C [12]: 14.5% | viability, T/C [13]: 30.5% | viability, T/C [14]: 30.4% | viability, T/C [15]: 19% | viability, T/C [16]: 14.6% | viability, T/C [17]: 14.8% | viability, T/C [18]: 19% | viability, T/C [19]: 30.9% | viability, T/C [20]: 24.8% | viability, T/C [21]: 18% | viability, T/C [22]: 16.1% | viability, T/C [23]: 15.2% | viability, T/C [24]: 20.7% | viability, T/C [25]: 32.2% | viability, T/C [26]: 24.8% | viability, T/C [27]: 19.1% | viability, T/C [28]: 16.9% | viability, T/C [29]: 18% | viability, T/C [30]: 19.8% | viability, T/C [31]: 0.13% | viability, T/C [32]: 0.61% | viability, T/C [33]: 1.35% | viability, T/C [34]: 0.64% | viability, T/C [35]: 1.28% | viability, T/C [36]: 1.03%

CC(C)(O)C1CCC(Nc2ccc3ncc(-c4cccc(C(F)(F)F)c4)n3n2)CC1 (stereo unspecified) + Cc1cnc(CNC(=O)c2c(=O)c3ccc(N4CCCN(C)CC4)nc3n3c2sc2ccccc23)cn1
IC50 (second compound 0.0316 µM): 1090 nM | IC50 (second compound 0.1 µM): 685 nM | IC50 (second compound 0.316 µM): 349 nM | IC50 (second compound 1 µM): < 31.6 nM | IC50 (second compound 3.16 µM): < 31.6 nM | IC50 (second compound 10 µM): < 31.6 nM | viability, T/C [1]: 72.8% | viability, T/C [2]: 69.2% | viability, T/C [3]: 58.2% | viability, T/C [4]: 57% | viability, T/C [5]: 32.6% | viability, T/C [6]: 29.5% | viability, T/C [7]: 57.3% | viability, T/C [8]: 63% | viability, T/C [9]: 67% | viability, T/C [10]: 43.9% | viability, T/C [11]: 26.2% | viability, T/C [12]: 24.3% | viability, T/C [13]: 52.9% | viability, T/C [14]: 50.8% | viability, T/C [15]: 47.9% | viability, T/C [16]: 44.6% | viability, T/C [17]: 22.5% | viability, T/C [18]: 25.8% | viability, T/C [19]: 43.7% | viability, T/C [20]: 43.6% | viability, T/C [21]: 37.9% | viability, T/C [22]: 37.3% | viability, T/C [23]: 18.9% | viability, T/C [24]: 17.4% | viability, T/C [25]: 32.9% | viability, T/C [26]: 34.7% | viability, T/C [27]: 32.5% | viability, T/C [28]: 32.1% | viability, T/C [29]: 18.5% | viability, T/C [30]: 1.21% | viability, T/C [31]: 0.27% | viability, T/C [32]: 2.83% | viability, T/C [33]: 2.02% | viability, T/C [34]: 1.99% | viability, T/C [35]: 2.14% | viability, T/C [36]: 1.18%
